Experimental data as given in the supplement of paper PMC10132981, “Formate overflow drives toxic folate trapping in MTHFD1 inhibited cancer cells” (Nature Metabolism, 2023).

Legend:
Test in all cases: EC50 for viability (resazurin, 96 h)
[1] = tested on: SW620 MTHFD2-/-; conditions: RPMI+GlutaMAX (5% dFBS, 1% P/S)
[2] = tested on: SW620 MTHFD2 -/-
[3] = tested on: SW620 WT
[4] = tested on: SW620
[5] = tested on: HCT116; conditions: RPMI+GlutaMAX (10% FBS, 1% P/S)

Nc1nc(N)c(CC(=O)Nc2cnc(C(=O)N[C@@H](CCC(=O)O)C(=O)O)c(F)c2)c(=O)[nH]1 [TH9619]
EC50 for viability [nM]
Conditions | metabolite supplement: Hypoxanthine | metabolite supplement: Hypoxanthine + Formate | metabolite supplement: Thymidine
[1] | 4230 | 30.1 | –
[5] | 13.5 | – | 1190

Conditions | EC50 for viability [nM]
[2], RPMI+GlutaMAX (5% dFBS, 1% P/S), metabolite supplement: Hypoxanthine | 25
[2], RPMI+GlutaMAX (5% dFBS, 1% P/S), metabolite supplement: Sodium Formate | 6.43
[2], RPMI+GlutaMAX (5% dFBS, 1% P/S), metabolite supplement: Thymidine | 0.821
[2], RPMI+GlutaMAX (5% dFBS, 1% P/S), metabolite supplement: Thymidine + Sodium Formate | > 10000
[2], RPMI+GlutaMAX (5% dFBS, 1% P/S), metabolite supplement: Vehicle | 1.03
[2], RPMI+GlutaMAX (10% FBS, 1% P/S), metabolite supplement: None | 2.82
[2], RPMI+GlutaMAX (10% dFBS, 1% P/S), metabolite supplement: None | 993
[3], RPMI+GlutaMAX (5% dFBS, 1% P/S), metabolite supplement: Adenine | 18.9
[3], RPMI+GlutaMAX (5% dFBS, 1% P/S), metabolite supplement: Adenosine | 18.3
[3], RPMI+GlutaMAX (5% dFBS, 1% P/S), metabolite supplement: Guanosine | 24.2
[3], RPMI+GlutaMAX (5% dFBS, 1% P/S), metabolite supplement: Hypoxanthine | 19.5
[3], RPMI+GlutaMAX (5% dFBS, 1% P/S), metabolite supplement: Hypoxanthine + AICAr 10 µM | 19.7
[3], RPMI+GlutaMAX (5% dFBS, 1% P/S), metabolite supplement: Hypoxanthine + AICAr 30 µM | 30.3
[3], RPMI+GlutaMAX (5% dFBS, 1% P/S), metabolite supplement: Hypoxanthine + AICAr 50 µM | 75.9
[3], RPMI+GlutaMAX (5% dFBS, 1% P/S), metabolite supplement: Hypoxanthine + AICAr 100 µM | 1670
[3], RPMI+GlutaMAX (5% dFBS, 1% P/S), metabolite supplement: Sodium Formate | 944
[3], RPMI+GlutaMAX (5% dFBS, 1% P/S), metabolite supplement: Thymidine | 1900
[3], RPMI+GlutaMAX (5% dFBS, 1% P/S), metabolite supplement: Thymidine + Sodium Formate | > 10000
[3], RPMI+GlutaMAX (5% dFBS, 1% P/S), metabolite supplement: Vehicle | 861
[3], RPMI+GlutaMAX (5% dFBS, 1% P/S, 10 uM Hypoxanthine), metabolite supplement: Thymidine 0.1 uM | 18.9
[3], RPMI+GlutaMAX (5% dFBS, 1% P/S, 10 uM Hypoxanthine), metabolite supplement: Thymidine 0.5 uM | 66.9
[3], RPMI+GlutaMAX (5% dFBS, 1% P/S, 10 uM Hypoxanthine), metabolite supplement: Thymidine 1uM | 3910
[3], RPMI+GlutaMAX (5% dFBS, 1% P/S, 10 uM Hypoxanthine), metabolite supplement: Thymidine 5uM | > 10000
[3], RPMI+GlutaMAX (5% dFBS, 1% P/S, 10 uM Hypoxanthine), metabolite supplement: Thymidine 10 uM | > 10000
[3], RPMI+GlutaMAX (5% dFBS, 1% P/S, 10 uM Hypoxanthine), metabolite supplement: Thymidine 25 uM | > 10000
[3], RPMI+GlutaMAX (5% dFBS, 1% P/S, 10 uM Hypoxanthine), metabolite supplement: Thymidine 50 uM | > 10000
[3], RPMI+GlutaMAX (5% dFBS, 1% P/S, 50 uM Hypoxanthine), metabolite supplement: Thymidine 0.1 uM | 17.4
[3], RPMI+GlutaMAX (5% dFBS, 1% P/S, 50 uM Hypoxanthine), metabolite supplement: Thymidine 0.5 uM | 26.3
[3], RPMI+GlutaMAX (5% dFBS, 1% P/S, 50 uM Hypoxanthine), metabolite supplement: Thymidine 1uM | 31.9
[3], RPMI+GlutaMAX (5% dFBS, 1% P/S, 50 uM Hypoxanthine), metabolite supplement: Thymidine 5uM | > 10000
[3], RPMI+GlutaMAX (5% dFBS, 1% P/S, 50 uM Hypoxanthine), metabolite supplement: Thymidine 10 uM | > 10000
[3], RPMI+GlutaMAX (5% dFBS, 1% P/S, 50 uM Hypoxanthine), metabolite supplement: Thymidine 25 uM | > 10000
[3], RPMI+GlutaMAX (5% dFBS, 1% P/S, 50 uM Hypoxanthine), metabolite supplement: Thymidine 50 uM | > 10000
[3], RPMI+GlutaMAX (10% FBS, 1% P/S), metabolite supplement: None | 32.9
[3], RPMI+GlutaMAX (10% dFBS, 1% P/S), metabolite supplement: None | 4.93
[4], HPLM (5% dFBS, 1% P/S), metabolite supplement: Vehicle | 11.3
[4], RPMI+GlutaMAX (5% FBS, 1% P/S), metabolite supplement: Vehicle | 24.9
[4], RPMI+GlutaMAX (5% dFBS, 1% P/S), metabolite supplement: 0 nM Pyrazofurin | 1030
[4], RPMI+GlutaMAX (5% dFBS, 1% P/S), metabolite supplement: 25 nM Pyrazofurin | 1160
[4], RPMI+GlutaMAX (5% dFBS, 1% P/S), metabolite supplement: 50 nM Pyrazofurin | 365
[4], RPMI+GlutaMAX (5% dFBS, 1% P/S), metabolite supplement: 0.5 µM Hypoxanthine | 287
[4], RPMI+GlutaMAX (5% dFBS, 1% P/S), metabolite supplement: 1.0 µM Hypoxanthine | 75.5
[4], RPMI+GlutaMAX (5% dFBS, 1% P/S), metabolite supplement: 5.0 µM Hypoxanthine | 14.1
[4], RPMI+GlutaMAX (5% dFBS, 1% P/S), metabolite supplement: 10 µM Hypoxanthine | 13.2
[4], RPMI+GlutaMAX (5% dFBS, 1% P/S), metabolite supplement: 12,5 nM Pyrazofurin | 1420
[4], RPMI+GlutaMAX (5% dFBS, 1% P/S), metabolite supplement: 25 µM Hypoxanthine | 14.6
[4], RPMI+GlutaMAX (5% dFBS, 1% P/S), metabolite supplement: 50 µM Hypoxanthine | 13.9
[4], RPMI+GlutaMAX (5% dFBS, 1% P/S), metabolite supplement: Allopurinol | 312
[4], RPMI+GlutaMAX (5% dFBS, 1% P/S), metabolite supplement: Allopurinol + Hypoxanthine | 15.5
[4], RPMI+GlutaMAX (5% dFBS, 1% P/S), metabolite supplement: Deoxyuridine | 267
[4], RPMI+GlutaMAX (5% dFBS, 1% P/S), metabolite supplement: Deoxyuridine + Hypoxanthine | 9.78
[4], RPMI+GlutaMAX (5% dFBS, 1% P/S), metabolite supplement: Febuxostat | 766
[4], RPMI+GlutaMAX (5% dFBS, 1% P/S), metabolite supplement: Febuxostat + Hypoxanthine | 25.2
[4], RPMI+GlutaMAX (5% dFBS, 1% P/S), metabolite supplement: H2O2 | 406
[4], RPMI+GlutaMAX (5% dFBS, 1% P/S), metabolite supplement: H2O2 + Hypoxanthine | 16.3
[4], RPMI+GlutaMAX (5% dFBS, 1% P/S), metabolite supplement: Hypoxanthine | 15.4
[4], RPMI+GlutaMAX (5% dFBS, 1% P/S), metabolite supplement: Orotic acid | 309
[4], RPMI+GlutaMAX (5% dFBS, 1% P/S), metabolite supplement: Orotic acid + Hypoxanthine | 12.8
[4], RPMI+GlutaMAX (5% dFBS, 1% P/S), metabolite supplement: Uric acid | 502
[4], RPMI+GlutaMAX (5% dFBS, 1% P/S), metabolite supplement: Vehicle | 400
[4], RPMI+GlutaMAX (5% dFBS, 1% P/S, 50 µM Hypoxanthine), metabolite supplement: 0 | 13.3
[4], RPMI+GlutaMAX (10% FBS, 1% P/S), metabolite supplement: Folic acid | 4000
[4], RPMI+GlutaMAX (10% FBS, 1% P/S), metabolite supplement: Folinic acid | > 10000
[4], RPMI+GlutaMAX (10% FBS, 1% P/S), metabolite supplement: Hypoxanthine | 13.6
[4], RPMI+GlutaMAX (10% FBS, 1% P/S), metabolite supplement: Sodium Formate | 15.3
[4], RPMI+GlutaMAX (10% FBS, 1% P/S), metabolite supplement: Thymidine | 516
[4], RPMI+GlutaMAX (10% FBS, 1% P/S), metabolite supplement: Thymidine + Folic acid | 8880
[4], RPMI+GlutaMAX (10% FBS, 1% P/S), metabolite supplement: Thymidine + Sodium Formate | 538
[4], RPMI+GlutaMAX (10% FBS, 1% P/S), metabolite supplement: Vehicle | 22.6
